According to patent US20180016593A1, “HERBICIDE-RESISTANT SUNFLOWER PLANTS, POLYNUCLEOTIDES ENCODING HERBICIDE-RESISTANT ACETOHYDROXYACID SYNTHASE LARGE SUBUNIT PROTEINS, AND METHODS OF USE” (priority 2005, published 2018):

Columns and labels:
[1] = system: S4897 sunflower plants; assay: Greenhouse spray treatment with imazamox (FIG. 3, FIG. 4); assay type: in vivo, Helianthus annuus; conditions: imazamox 100 or 200 g ai/ha, evaluated 17 days after application
Description: (§1) The S4897 and IMISUN-1 sunflower plants were spray-treated with imazamox at rate of 200 g ai/ha. […] The photograph was taken a few days after the plants were spray treated.
(§2) FIG. 4 is graphical illustration of herbicide injury in a greenhouse test following the spray treatment of IMISUN-1, wild-type, and S4897 sunflower plants with imazamox at either 100 (light columns) or 200 g ai/ ha (dark columns). […] Herbicide injury was evaluated 17 days after the imazamox application.

[2] = system: wild-type sunflower plants; assay: as above; assay type: in vivo, Helianthus annuus; conditions: imazamox at either 100 or 200 g ai/ha
Description: as §1, §2

[3] = system: Clearfield sunflower variety C; assay: Greenhouse spray injury rating (Example 5); assay type: in vivo; conditions: variety C, 14 DAT
Description: (§3) Methods: Sunflower lines S4897, Clearfield® sunflower varieties A, B, C and a conventional non-Clearfield variety were sprayed with three rates of imazamox (Raptor™), 100, 200 and 300 gm ai/ha plus 0.5% Sun It II and two rates of imazapyr (Arsenal™) 160 and 360 gm ai/ha plus 0.5% Sun It II when the plants were at the two to three leaf stage. Ratings were taken at 14 days after application (DAT) for injury. Injury was rated on a scale from 0 to 9 where […] to 9=dead plant. Twelve plants were sprayed per herbicide/rate treatment. Statistical analysis was conducted with STATGRAPHICS Plus 5.0 by using ANOVA and LSD procedures.
(§4) Results: After plants were sprayed, it was realized that a height difference between S4897 and other sunflower varieties would have impacted the actual herbicide dose that was delivered. The spray boom height had been calibrated against S4897 and since the other varieties were taller and closer to the boom they would have received a greater dose of herbicide. Rates were recalibrated for the other varieties to determine the approximate dose they would have received. Assessments were made as presented in Table 2 since it was not possible to make a direct rate comparison due to the effect of the height. For example injury scores were compare for S4897 treated imazamox rate 100 gm ai/ha to the other varieties treated at 75 gm ai/ha. The treatment dose of 300 gm ai/ha for line S4897 was equivalent to the treatment of 200 gm ai/ha for the other varieties, which approximately was 300 gm ai/ha.

[4] = system: conventional non-Clearfield variety; assay: Greenhouse spray injury rating (Example 5); assay type: in vivo; conditions: non-Clearfield, 14 DAT
Description: as §3, §4

[5] = system: Clearfield sunflower variety B; assay: Greenhouse spray injury rating (Example 5); assay type: in vivo; conditions: variety B, 14 DAT
Description: as §3, §4

[6] = system: Sunflower line S4897; assay: Greenhouse spray injury rating (Example 5); assay type: in vivo; conditions: 14 DAT
Description: as §3, §4

[7] = system: Clearfield sunflower variety A; assay: Greenhouse spray injury rating (Example 5); assay type: in vivo; conditions: variety A, 14 DAT
Description: as §3, §4

[8] = system: AHAS of S4897 sunflower plants (Ala107-to-Thr); assay: AHAS activity inhibition (Example 5); assay type: biochemical, Helianthus annuus; conditions: higher concentration of imazamox; compared to a Clearfield sunflower and conventional non Clearfield variety (FIG. 7)
Description: AHAS activity analysis was also conducted by selecting actively growing young leaves from plants that were not sprayed with herbicide at approximately four weeks after planting.

[9] = system: S4897 plants; design: species or system Helianthus annuus; conditions: in vivo
Description: In field trials in Argentina, S4897 plants were tested for resistance to imazapic. […] This trial had single row plots and was treated on a windy day, so the actual herbicide dose reaching the plants was likely less than was applied.

COCc1cnc(C2=NC(C)(C(C)C)C(=O)N2)c(C(=O)O)c1 (stereo not shown) [imazamox]
herbicide injury (resistance or tolerance vs IMISUN-1 and wild-type) [1]: significantly greater resistance or tolerance
survival after spray treatment [2]: did not survive
Injury (scale 0 to 9) ([3]; imazamox 75 gm ai/ha (100/75)): 1.8 b
Injury (scale 0 to 9) ([3]; imazamox 150 gm ai/ha): 2.9 b
Injury (scale 0 to 9) ([3]; imazamox 300 gm ai/ha): 4.6 b
Injury (scale 0 to 9) ([4]; imazamox 75 gm ai/ha (100/75)): 7.2 days
Injury (scale 0 to 9) ([4]; imazamox 150 gm ai/ha): 8.2 days
Injury (scale 0 to 9) ([4]; imazamox 300 gm ai/ha): 8.7 e
Injury (scale 0 to 9) ([5]; imazamox 75 gm ai/ha (100/75)): 1.9 b
Injury (scale 0 to 9) ([5]; imazamox 150 gm ai/ha): 4.8 c
Injury (scale 0 to 9) ([5]; imazamox 300 gm ai/ha): 5.3 c
Injury (scale 0 to 9) ([6]; imazamox 100 gm ai/ha + 0.5% Sun It II, 0 no injury, 9 dead plant): 0.5 a
Injury (scale 0 to 9) ([6]; imazamox 200 gm ai/ha): little to no injury
Injury (scale 0 to 9) ([6]; imazamox 200 gm ai/ha, listed as Imazamox): 0.8 a
Injury (scale 0 to 9) ([6]; imazamox 300 gm ai/ha): very little injury
Injury (scale 0 to 9) ([6]; imazamox 300 gm ai/ha, listed as Imazamox): 0.8 a
Injury (scale 0 to 9) ([7]; imazamox 75 gm ai/ha (100/75)): 4.3 c
Injury (scale 0 to 9) ([7]; imazamox 150 gm ai/ha (column 200/150)): significantly in juried and had stopped growing
Injury (scale 0 to 9) ([7]; imazamox 150 gm ai/ha (column 200/150), listed as Imazamox): 4.6 c
Injury (scale 0 to 9) ([7]; imazamox 300 gm ai/ha): 6.5 days
inhibition of AHAS activity [8]: less inhibition

Cc1cnc(C2=NC(=O)C(C)(C(C)C)N2)c(C(=O)O)c1 (stereo not shown) [imazapic]
resistance to imazapic compared with IMISUN-1 [9]: clearly superior
